The text below walks through data of patent US20140322139A1, “STABILIZATION OF X-RAY DIAGNOSTIC COMPOSITION” (GE HEALTHCARE AS, priority 2011, published 2014).

The structures appear in SMILES notation.

Data set [1] can be described thus: Physical stability study: visual inspection for crystallisation during storage. It counts as physicochemical. Particulars: conclusion from the storage study of Ioforminol/Visipaque mixtures. Here is the method: Formulated Ioforminol (320 mg I/ml) and Visipaque (Iodixanol 320 mg I/ml) were filled on 100 ml glass vials in mixtures with ratios according to Table 1. The filling was performed by using a Flexicon PF5 peristaltic pump. The vials were sealed by closures comprising stoppers and overlying caps. The vials were split into two populations, one that was subjected to heat steam sterilisation at 121° C. (autoclaving) for 20 minutes and one that was used without further treatment.
The autoclaved and non-autoclaved samples of different mixtures were placed on storage at 25, 40 and 60° C. respectively. The samples were subjected to visual inspection weekly for the first 5 weeks before inspection was carried out monthly.

A short description of data set [2]: Dissolution temperature of ioforminol in water for injection. It counts as physicochemical. Conditions: water for injection as the solvent, concentration range 270-380 mg I/ml.

Take `CC(=O)N(CC(O)CN(C(C)=O)c1c(I)c(C(=O)NCC(O)CO)c(I)c(C(=O)NCC(O)CO)c1I)c1c(I)c(C(=O)NCC(O)CO)c(I)c(C(=O)NCC(O)CO)c1I` (centres unmarked) [Iodixanol]: the “inhibition of primary nucleation” value in data set [1] is “potent inhibitor of primary nucleation”.

Compound `O=CN(CC(O)CN(C=O)c1c(I)c(C(=O)NCC(O)CO)c(I)c(C(=O)NCC(O)CO)c1I)c1c(I)c(C(=O)NCC(O)CO)c(I)c(C(=O)NCC(O)CO)c1I` (centres unmarked) [Ioforminol, 5-[formyl-[3-[formyl-[3,5-bis(2,3-dihydroxypropylcarbamoyl)-2,4,6-triiodophenyl]amino]-2-hydroxypropyl]amino]-N,N′-bis(2,3-dihydroxypropyl)-2,4,6-triiodobenzene-1,3-dicarboxamide] registered a dissolution temperature in data set [2] of roughly 110 °C.
